Consider 20 molecules from PubChem BioAssay (NCI).

Common to all, as to assay: growth of human tumour cells (NCI), 48 h
For experiment [1], the system named is CAKI-1 renal.
Experiment [2] concerns CCRF-CEM leukemia.
The test system of experiment [3] is HCT-116 colon.
In experiment [4] the test system is HCT-15 colon.
For experiment [5], the system named is HL-60(TB) leukemia.
For experiment [6], the system named is KM12 colon.
Experiment [7] deals with LOX IMVI melanoma.
Experiment [8] relates to OVCAR-8 ovarian.
Experiment [9] has as its system RXF 393 renal.
Experiment [10] has as its system SK-MEL-2 melanoma.

The structures appear in SMILES notation.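 Method: 48-hour compound exposure of cells in 96-well plates, five concentrations, linear interpolation of endpoints. GI50 is the concentration that inhibits growth by half. TGI is the concentration that stops growth completely.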 Bounds are passed on as bounds.

Regarding `C=C1CC[C@@H]2[C@](C)(COC(C)=O)[C@H](OC(C)=O)CC[C@@]2(C)[C@@H]1CC(Nc1ccc(S(=O)(=O)Nc2nccc(C)n2)cc1)C1=CCOC1=O` (stereo not given in full), the GI50 in experiment [1] was 3.56 µM; in experiment [2] it was 0.073 µM; in [3], 1.6 µM; in experiment [4] it was 1.79 µM; in [5], 2.1 µM; in [6], 4.59 µM. In addition, the GI50 in [7] was 1.53 µM; in experiment [8], 2.61 µM; in experiment [9], 2.33 µM; in experiment [10] it was 6.01 µM. Also, the TGI in experiment [1] was 12.5 µM; in experiment [2], 3.09 µM; in experiment [3], 3.56 µM; in experiment [4], 4.24 µM; in experiment [5], 5.63 µM; in experiment [6], 16.4 µM. Also, the TGI in experiment [7] stood at 3.24 µM; in experiment [8], 8.56 µM; in experiment [9] it was 4.18 µM; in experiment [10] it was 20 µM.
Regarding `Cc1nc2sc(C(=O)Nc3ccccc3)c(N)c2cc1C(=O)/C=C/c1ccccc1`, the GI50 is 1.87 µM in experiment [1]; 2.22 µM in experiment [2]; 1.46 µM in experiment [3]; 1.57 µM in experiment [4]; 2.03 µM in experiment [5]; 1.73 µM in experiment [6]. In addition, the GI50 was 1.68 µM in [7], 3.03 µM in experiment [8], 1.67 µM in [9] and 3.37 µM in [10]. The TGI was 3.74 µM in experiment [1]; above 100 µM in experiment [2]; 2.97 µM in experiment [3]; 3.63 µM in experiment [4]; 4.83 µM in experiment [5]; 3.38 µM in [6]. For the same molecule, the TGI came out at 3.13 µM in experiment [7], 11.8 µM in [8], 3.25 µM in experiment [9] and 14.6 µM in [10].
For `CC(=O)[O-].CC(=O)[O-].[NH2-].[Pt+2].c1ccc2cnccc2c1`, the GI50 was 55.1 µM in experiment [1]; 14.1 µM in experiment [2]; 15.1 µM in experiment [3]; 16.9 µM in experiment [4]; 9.62 µM in experiment [5]; 13.5 µM in experiment [6]. For the same molecule, the GI50 was 9.19 µM in experiment [7], 3.72 µM in experiment [8], 0.0522 µM in [9] and 36 µM in experiment [10]. Further, the TGI in [1] is above 100 µM; in experiment [2] it was above 100 µM; in experiment [3], 33.7 µM; in experiment [4] it was 45.8 µM; in [5], 87.5 µM; in experiment [6], above 100 µM. The TGI was 31.7 µM in experiment [7], 21.7 µM in [8], 24 µM in experiment [9] and above 100 µM in experiment [10].
Take `N[C@H](C(=O)O)[C@H](Cl)CC(=O)O`: the TGI in experiment [1], in experiment [2], in experiment [3], in [4], in experiment [5] and in experiment [6] was above 100 µM each time. The TGI in [7], in [8], in [9] and in experiment [10] was above 100 µM throughout.
Regarding `O=C(O)c1cc(=O)c2[nH]c3ccccc3c2s1`, the TGI in experiment [1], in experiment [2], in [4], in [5], in experiment [6] and in [8] was above 100 µM throughout. Moreover, the TGI in experiment [9] and in experiment [10] was above 100 µM in each case.
For the molecule `CO/N=C(\C)c1ccc(Nc2cc(-c3ccccc3)nc3c(O)cccc23)cc1`, the GI50 in experiment [1] is 19.4 µM; in [2], 6.64 µM; in experiment [3], 22.2 µM; in experiment [4], 16.2 µM; in experiment [5], 48.4 µM; in experiment [7], 14.3 µM. For the same molecule, the GI50 in experiment [8] is 13.6 µM; in experiment [9], 14.2 µM; in experiment [10] it was 28 µM. Also, the TGI in experiment [1] was 35.5 µM; in experiment [2], 22.6 µM; in [3], 52.7 µM; in experiment [4], 32.5 µM; in [5], above 100 µM; in experiment [7] it was 27.9 µM. Further, the TGI was 33.9 µM in experiment [8], 30 µM in experiment [9] and above 100 µM in [10].
For `O=c1cc(-c2ccccc2)c2cc3c(=O)ccoc3cc2o1`, the TGI in experiment [2], in [3], in experiment [4], in [5], in experiment [7] and in experiment [8] was above 100 µM throughout. The TGI in [9] and in [10] was above 100 µM throughout.
Regarding `Cc1cc(=O)oc2cc3c(cc12)Oc1ccccc1O3`, the TGI was above 10 µM in experiment [2]; above 100 µM in experiment [3]; above 100 µM in experiment [4]; above 10 µM in experiment [5]; above 100 µM in experiment [6]; above 100 µM in [7]. In addition, the TGI in experiment [8], in experiment [9] and in [10] was above 100 µM throughout.
Turning to `C=C1C(=O)O[C@H]2[C@H]1CC/C(COC(=O)N1CCC[C@H]1C(=O)Nc1ccc(OC)c(C(N)=O)c1O)=C\CC[C@@]1(C)O[C@@H]21`, the GI50 in experiment [2] is 1.65 µM; in experiment [3] it was 1.33 µM; in experiment [4] it was 4.34 µM; in experiment [5], 1.59 µM; in [6], 5.53 µM; in experiment [7] it was 1.39 µM. In addition, the figures for the GI50 in experiment [8], in [9] and in experiment [10] were 4.73 µM, 1.2 µM and 6.58 µM, respectively. Besides, the TGI amounted to 5.95 µM in experiment [2]; 3.06 µM in experiment [3]; 17.2 µM in [4]; 4.83 µM in [5]; 20 µM in [6]; 3.23 µM in experiment [7]. Besides, the TGI in experiment [8] was 26 µM; in [9] it was 2.79 µM; in [10], 34.4 µM.
As to `COc1cccc(C2c3cc4c(cc3OC(O)(CO)C2C(=O)O)OCO4)c1` (stereo not given) (tested in a mixture with another compound), the TGI is above 100 µM in experiment [2]; above 100 µM in experiment [3]; above 100 µM in experiment [4]; 75.4 µM in experiment [5]; above 100 µM in [6]; above 100 µM in experiment [7]. Besides, the TGI in experiment [8], in [9] and in [10] was above 100 µM throughout.
Take `Cc1ccc(NC(=O)/C(=N\Nc2ccc([N+](=O)[O-])cc2[N+](=O)[O-])C2C(=O)NC(=O)NC2=O)cc1`: the TGI in [1], in experiment [2], in [3], in [4], in [5] and in experiment [6] was above 100 µM in each case. Besides, the TGI in [7], in [8] and in [9] was above 100 µM throughout.
As to `Clc1nc(Cl)c2ncn(Cc3ccc(COc4cccc(OCc5ccc(Cn6cnc7c(Cl)nc(Cl)nc76)cc5)c4)cc3)c2n1`, the GI50 was above 100 µM in experiment [1]; 17.2 µM in experiment [2]; 28.8 µM in [4]; 13.5 µM in experiment [5]; 58.2 µM in experiment [6]; 2.47 µM in [7]. In addition, the GI50 in experiment [8] was 33.6 µM; in experiment [9], above 100 µM; in [10] it was 28.2 µM. Also, the TGI is above 100 µM in experiment [1]; above 100 µM in experiment [2]; above 100 µM in experiment [4]; 34.3 µM in [5]; above 100 µM in experiment [6]; 12.7 µM in [7]. For the same molecule, the TGI in experiment [8], in experiment [9] and in experiment [10] was above 100 µM throughout.
For `COc1cc(/C=C/C(=O)c2sc(Nc3ccccc3)nc2C)ccc1O`, the TGI in experiment [1], in [2], in [4], in [5], in [6] and in experiment [7] was above 100 µM in each case. Further, the TGI in experiment [8], in [9] and in experiment [10] was above 100 µM throughout.
With `CC1=C(O)C(=O)C2C(=O)C1C(C)C2c1ccc(Cl)cc1` (stereo not given), the TGI in experiment [1], in experiment [2], in experiment [4], in experiment [5], in experiment [6] and in experiment [7] was above 100 µM throughout. Also, the TGI in [8], in [9] and in [10] was above 100 µM in each case.
For the molecule `CCCCCCCCCc1cc(=O)c2ccc(O)cc2o1`, the TGI in experiment [1] was 81.8 µM; in experiment [2] it was 55.2 µM; in experiment [3], above 100 µM; in [5], 38.2 µM; in [6], above 100 µM; in [7], above 100 µM. The TGI in experiment [8], in experiment [9] and in [10] was above 100 µM in each case.
Consider `COc1ccc2c(c1)OC(N(C(C)=O)C(C)=O)=C(C#N)C2c1ccc(F)cc1` (stereo not given), for which the GI50 in experiment [2] is 2.13 µM; in experiment [3], 1.26 µM; in experiment [4], 0.683 µM; in experiment [5] it was 0.496 µM; in [6] it was 0.664 µM; in experiment [7], 3.26 µM. In addition, the results for the GI50 in experiment [8], in experiment [9] and in experiment [10] were 3.92 µM, 1.77 µM and 1.08 µM, respectively. The TGI in experiment [2] is above 100 µM; in experiment [3], above 100 µM; in experiment [4], above 100 µM; in experiment [5], 2.53 µM; in experiment [6] it was above 100 µM; in experiment [7], above 100 µM. Besides, the values for the TGI in experiment [8], in experiment [9] and in experiment [10] were above 100 µM, 9.63 µM and above 100 µM, respectively.
`Clc1nc(Cl)c2c(ncn2C/C=C\Cn2cnc3c(Cl)nc(Cl)nc32)n1`: the GI50 is 1.63 µM in experiment [1]; 0.573 µM in [2]; 1.5 µM in [4]; 1.85 µM in experiment [5]; 1.82 µM in [6]; 1.36 µM in [7]. For the same molecule, the values for the GI50 in experiment [8], in experiment [9] and in experiment [10] were 1.2 µM, 0.351 µM and 1.41 µM, respectively. The TGI in experiment [1] was 3.83 µM; in [2], 2.57 µM; in [4] it was 3.2 µM; in experiment [5], above 100 µM; in [6], 3.41 µM; in [7], 2.85 µM. Besides, the TGI in experiment [8] was found to be 4.37 µM; in experiment [9], 0.906 µM; in [10], 2.73 µM.
Consider `CC(C)CC1=[N+]=C(NC#N)N=C(CCC(=O)Nc2ccccc2[N+](=O)[O-])C1`, for which the TGI in experiment [1], in experiment [2], in experiment [3], in [4], in [5] and in experiment [6] was above 100 µM each time. For the same molecule, the TGI in experiment [7], in experiment [8] and in [9] was above 100 µM each time.
Regarding `COc1cc(Nc2nc(N[C@H]3CCCC[C@@H]3N)nc3cc[nH]c(=O)c23)cc(OC)c1`, the GI50 in [1] is 1.84 µM; in experiment [2], 1.39 µM; in [3], 1.03 µM; in experiment [4] it was 3.97 µM; in experiment [5], 0.47 µM; in experiment [6] it was 0.422 µM. In addition, the GI50 in experiment [7] was 0.468 µM; in [8], 3.17 µM; in experiment [9], 0.403 µM. For the same molecule, the TGI was found to be 10.9 µM in experiment [1]; 11.8 µM in experiment [2]; 2.27 µM in experiment [3]; 18.3 µM in experiment [4]; 3.8 µM in experiment [5]; 3.11 µM in [6]. Also, the figures for the TGI in experiment [7], in experiment [8] and in experiment [9] were 1.77 µM, 19.6 µM and 2.76 µM, respectively.
With `Cn1ccnc1C(=O)/C=C/c1ccc(CC(=O)Nc2ccccc2)cc1`, the GI50 in experiment [2] was 2.37 µM; in experiment [3], 1.68 µM; in experiment [4], 1.25 µM; in experiment [5], 1.57 µM; in experiment [6] it was 3.39 µM; in experiment [7], 1.03 µM. The GI50 in experiment [8] was 6.44 µM; in experiment [9], 3.86 µM; in experiment [10] it was 5.06 µM. In addition, the TGI was above 25 µM in experiment [2]; 5.13 µM in [3]; 8.77 µM in experiment [4]; 9.35 µM in [5]; 8.17 µM in experiment [6]; 4.27 µM in [7]. For the same molecule, the results for the TGI in experiment [8], in [9] and in [10] were above 25 µM, 7.99 µM and 13.3 µM, respectively.
